Data: patent US10280175B2, “Hepatitis B antiviral agents” (Enanta Pharmaceuticals, Inc., priority 2016, dated 2019)

system: HBV in HepAD38 cells; test: HepAD38 cell antiviral assay (reduction of viral product accumulation); type: cell-based; details: Hepatitis B virus, concentration reducing viral product accumulation by 50% relative to no drug controls
Experimental: Methods: HepAD38 cells are maintained as previously reported (Ladner et al, Antimicrob. Agents Chemother. 1997, […], 1715). Briefly, cells are passaged upon attaining confluency in DMEM/F12 media in the presence of 10% FBS, Penn/Strep, 250 μg/mL G418, and 1 ug/ml tetracycline. Novel compounds are screened by first washing cells three times with PBS to remove tetracycline, and plating in 96 well plates at 35,000 cells/well. Compounds dissolved in DMSO are then diluted 1:200 into wells containing cells. Five days after compound addition, material is harvested for analysis. For an extended 8 day analysis, cells are plated and treated as described above, but media and compound are refreshed on d2 and d5 post initial treatment.
On harvest day, virion DNA is obtained by lysing with Sidestep Lysis and Stabilization Buffer and then quantified via quantitative real time PCR. Commercially available ELISA kits are used to quantitate the viral proteins HBsAg (Alpco) or HBeAg (US Biological) by following the manufacturer's recommended protocol after diluting samples to match the linear range of their respective assays. Irrespective of readout, compound concentrations that reduce viral product accumulation in the cell lysates or supernatants by 50% relative to no drug controls (EC50) are reported; EC50 ranges are as follows: A<1 μM; B 1-10 μM; C>10 μM.

Q: For O=S(=O)(c1cc(-c2ncc(-c3ccc(Br)c(F)c3)[nH]2)ccc1Cl)N1C2CC[C@@H]1C[C@H](O)C2 [Example 1], which EC50 is on record?
A: < 1000 nM

Q: With O=S(=O)(c1cc(-c2ncc(-c3ccc(Br)c(F)c3)[nH]2)ccc1Cl)N1C2CC[C@@H]1C[C@@H](O)C2 [Example 2] as the molecule, how does the EC50 read?
A: < 1000 nM

Q: With C[C@H](NC(=O)OC(C)(C)C)C(=O)O[C@@H]1CC2CC[C@H](C1)N2S(=O)(=O)c1cc(-c2ncc(-c3ccc(Br)c(F)c3)[nH]2)ccc1Cl [Example 3] as the molecule, how does the EC50 read?
A: < 1000 nM

Q: How did the EC50 turn out when C[C@H](N)C(=O)O[C@@H]1CC2CC[C@H](C1)N2S(=O)(=O)c1cc(-c2ncc(-c3ccc(Br)c(F)c3)[nH]2)ccc1Cl [Example 4] was run?
A: < 1000 nM

Q: Which EC50 does the source give for O=S(=O)(c1cc(-c2ncc(-c3ccc(Br)c(F)c3)[nH]2)ccc1Cl)N1CCC(O)C2(CC2)C1 (stereo not drawn) [Example 5] here?
A: < 1000 nM

Q: How did the EC50 turn out when O=C(Nc1cc(F)c(F)c(F)c1)c1ccc(Cl)c(S(=O)(=O)N2C3CC[C@@H]2C[C@H](O)C3)c1 [Example 6] was run?
A: < 1000 nM

Q: With O=C(Nc1cc(F)c(F)c(F)c1)c1ccc(Cl)c(S(=O)(=O)N2C3CC[C@@H]2C[C@@H](O)C3)c1 [Example 7] as the molecule, how does the EC50 read?
A: < 1000 nM

Q: For O=C(Nc1ccc(Br)c(F)c1)c1ccc(Cl)c(S(=O)(=O)N2C3CC[C@@H]2C[C@H](O)C3)c1 [Example 8], which EC50 is on record?
A: 1000 to 10000 nM

Q: How did the EC50 turn out when O=C(Nc1cc(F)c(F)c(F)c1)c1ccc(Cl)c(S(=O)(=O)N2CCC(O)C3(CC3)C2)c1 (stereo not drawn) [Example 9] was run?
A: < 1000 nM

Q: How did the EC50 turn out when O=S(=O)(c1cc(-c2ncc(-c3ccc(C4CC4)c(Cl)c3)[nH]2)ccc1Cl)N1C2CC[C@@H]1C[C@H](O)C2 [Example 10] was run?
A: < 1000 nM

Q: With O=S(=O)(c1cc(-c2ncc(-c3ccc(Cl)c(C4CC4)c3)[nH]2)ccc1Cl)N1C2CC[C@@H]1C[C@H](O)C2 [Example 11] as the molecule, how does the EC50 read?
A: < 1000 nM

Q: Which EC50 does the source give for O=S(=O)(c1cc(-c2ncc(-c3ccc(C(F)(F)F)c(C4CC4)c3)[nH]2)ccc1Cl)N1C2CC[C@@H]1C[C@H](O)C2 [Example 12] here?
A: < 1000 nM

Q: Which EC50 does the source give for O=S(=O)(c1cc(-c2ncc(-c3ccc(C(F)(F)F)c(Cl)c3)[nH]2)ccc1Cl)N1C2CC[C@@H]1C[C@H](O)C2 [Example 13] here?
A: < 1000 nM

Q: Which EC50 does the source give for O=S(=O)(c1cc(-c2ncc(-c3ccc(Cl)c(C(F)(F)F)c3)[nH]2)ccc1Cl)N1C2CC[C@@H]1C[C@H](O)C2 [Example 14] here?
A: < 1000 nM

Q: For O=S(=O)(c1cc(-c2ncc(-c3ccc(C4CC4)c(C(F)(F)F)c3)[nH]2)ccc1Cl)N1C2CC[C@@H]1C[C@H](O)C2 [Example 15], which EC50 is on record?
A: 1000 to 10000 nM

Q: With O=C1CC2CCC(C1)N2S(=O)(=O)c1cc(C(=O)Nc2cc(F)c(F)c(F)c2)ccc1Cl [Example 16] as the molecule, how does the EC50 read?
A: < 1000 nM

Q: C=C1CC2CCC(C1)N2S(=O)(=O)c1cc(C(=O)Nc2cc(F)c(F)c(F)c2)ccc1Cl [Example 17] was tested. Which EC50 did it give?
A: < 1000 nM

Q: Which EC50 does the source give for O=C(Nc1cc(F)c(F)c(F)c1)c1ccc(Cl)c(S(=O)(=O)N2C3CCC2CC(O)(CO)C3)c1 (stereo not drawn) [Example 18] here?
A: < 1000 nM

Q: Which EC50 does the source give for O=C(Nc1cc(F)c(F)c(F)c1)c1ccc(Cl)c(S(=O)(=O)N2C3CCC2CC(CO)C3)c1 (stereo not drawn) [Example 19] here?
A: < 1000 nM

Q: With O=C(Nc1cc(F)c(F)c(F)c1)c1ccc(Cl)c(S(=O)(=O)N2CCC3(CC2)COC3)c1 [Example 20] as the molecule, how does the EC50 read?
A: 1000 to 10000 nM

Q: O=S(=O)(c1cc(-c2ncc(-c3ccc(Br)c(F)c3)[nH]2)ccc1Cl)N1CCC2(COC2)C1 [Example 21] was tested. Which EC50 did it give?
A: 1000 to 10000 nM

Q: With O=S(=O)(c1cc(-c2ncc(-c3ccc(Br)c(F)c3)[nH]2)ccc1Cl)N1CC2(COC2)C1 [Example 22] as the molecule, how does the EC50 read?
A: 1000 to 10000 nM

Q: For O=S(=O)(c1cc(C(Nc2cc(F)c(F)c(F)c2)C(F)(F)F)ccc1Cl)N1C2CC[C@@H]1CC(O)C2 (stereo partly drawn) [Example 23], which EC50 is on record?
A: > 10000 nM

Q: Which EC50 does the source give for O=S(=O)(c1cc(C2(Nc3cc(F)c(F)c(F)c3)COC2)ccc1Cl)N1C2CC[C@@H]1CC(O)C2 (stereo partly drawn) [Example 24] here?
A: > 10000 nM
